These are literature values, as cited in patent publication USRE45822E1, “Oral dosage form comprising a therapeutic agent and an adverse-effect agent” (Purdue Pharma L.P., priority 2001, dated 2015).

Molecules are shown by their SMILES.

For this series the following is noted: administered orally; retain much of their efficacy.

Turning to `C[C@H]1[C@H]2Cc3ccc(O)cc3[C@]1(C)CCN2CC1CC1` [cyclazocine], the duration of action was approximately 24 h.

`O=C1CC[C@@]2(O)[C@H]3Cc4ccc(O)c5c4[C@@]2(CCN3CC2CC2)[C@H]1O5` [naltrexone]: the duration of action was approximately 24 h.
